Laboratory results published in paper PMC11208146, “Molecular basis for transposase activation by a dedicated AAA+ ATPase” (Nature, 2024).

Experiments:
Assay type in all cases: binding
[1] = target: T1, IstA–IstB–STC holo-transpososome (Geobacillus stearothermophilus, UniProt Q45618+Q45619, Q45619:E167Q, form not given); test: cryo-EM structure, focused refinement of core, […] Å; conditions: assembled with 1 mM ATP, 5 mM MgCl2, pH 7.5, strand-transfer DNA; IstB monomers 1a and 1a' contacting IstA
T1 construct: full-length IstB (His6-MBP cleaved) with full-length IstA (C-terminal MBP-His6 cleaved by TEV), E. coli; in the structure one IstA tetramer, two IstB decamers and strand-transfer DNA, about 1 MDa; IstA Glu209/Tyr213 contact the nucleotide of IstB 1a/1a'

[2] = target: T1, IstA–IstB–STC holo-transpososome; test: cryo-EM structure, […] Å; conditions: assembled with 1 mM ATP, 5 mM MgCl2, pH 7.5, strand-transfer DNA; internal IstB-IstB sites (e.g. 1b)
IstB = target: T2, IstB (Geobacillus stearothermophilus, UniProt Q45619); test: cryo-EM structure, […] Å; conditions: 5 mM MgCl2, 1 mM ATP, pH 7.5, 60 bp target DNA; eight complete sites at IstB-IstB interfaces
T2 construct: full-length; His6-MBP tag cleaved (PreScission); E. coli BL21 codon-plus (DE3) RIL; pentamer of dimers (decamer) on 60 bp target DNA

SMILES | cryo-EM structure, focused refinement of core, 3.2 Å [1] | cryo-EM structure, 3.6 Å [2] | cryo-EM structure, 3.2 Å (IstB)
Nc1ncnc2c1ncn2[C@@H]1O[C@H](COP(=O)(O)OP(=O)(O)O)[C@@H](O)[C@H]1O [ADP] | revealed that the density in these active sites is most consistent with ADP | – | –
Nc1ncnc2c1ncn2[C@@H]1O[C@H](COP(=O)(O)OP(=O)(O)OP(=O)(O)O)[C@@H](O)[C@H]1O [ATP] | – | other subunits (1b, bound to ATP, shown on the right for comparison) | Close inspection of the EM map showed clear density maps for ATP in all binding pockets
